Measurements reported in ChEMBL document CHEMBL4406790, “Targeted Treatments for Chronic Obstructive Pulmonary Disease (COPD) Using Low-Molecular-Weight Drugs (LMWDs)” (J Med Chem, 2019).
One block for each molecule: values may come before it.

How the values were obtained:
[1] = target: Voltage-gated inwardly rectifying potassium channel KCNH2 (Homo sapiens, UniProt Q12809); assay: Inhibition of human ERG by high throughput automated patch clamp method
[2] = Half life in human; assay type: ADME
[3] = Oral bioavailability in human; assay type: ADME, organism-based; conditions: in vivo
[4] = target: Muscarinic acetylcholine receptor M3 (Homo sapiens, UniProt P20309); assay: Antagonist activity at human M3 receptor
[5] = target: T1, Beta-2 adrenergic receptor (Homo sapiens, UniProt P07550); assay: Agonist activity at human beta2 adrenoceptor
[6] = target: T1, Beta-2 adrenergic receptor; assay: Inhibition of beta2 adrenoceptor (unknown origin)
[7] = target: 3',5'-cyclic-AMP phosphodiesterase 4B (Homo sapiens, UniProt Q07343); assay: Inhibition of PDE4B2 (unknown origin)
[8] = target: Macrophage metalloelastase (Homo sapiens, UniProt P39900); assay: Inhibition of MMP12 (unknown origin)
[9] = target: T2, Muscarinic acetylcholine receptor M2 (Homo sapiens, UniProt P08172); assay: Inhibition of M2 receptor (unknown origin)
T2 sequence (P08172 whole entry): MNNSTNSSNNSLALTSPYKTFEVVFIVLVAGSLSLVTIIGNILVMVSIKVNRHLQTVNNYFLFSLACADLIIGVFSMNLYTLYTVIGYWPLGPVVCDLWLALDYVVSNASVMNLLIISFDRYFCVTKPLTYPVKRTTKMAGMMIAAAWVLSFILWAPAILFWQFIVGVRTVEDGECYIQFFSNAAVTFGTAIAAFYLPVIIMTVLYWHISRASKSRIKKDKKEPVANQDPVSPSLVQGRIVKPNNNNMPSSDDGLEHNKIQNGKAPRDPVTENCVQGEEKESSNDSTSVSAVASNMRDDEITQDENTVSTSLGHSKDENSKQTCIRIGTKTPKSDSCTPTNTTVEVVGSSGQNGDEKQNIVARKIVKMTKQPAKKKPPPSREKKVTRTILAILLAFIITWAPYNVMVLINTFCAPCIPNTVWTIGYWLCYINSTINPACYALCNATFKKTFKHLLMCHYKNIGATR

[10] = Inhibition of TNFalpha-induced NFkappaB (unknown origin); parameters: species or system Homo sapiens

Chain of Muscarinic acetylcholine receptor M3 (P20309 whole entry): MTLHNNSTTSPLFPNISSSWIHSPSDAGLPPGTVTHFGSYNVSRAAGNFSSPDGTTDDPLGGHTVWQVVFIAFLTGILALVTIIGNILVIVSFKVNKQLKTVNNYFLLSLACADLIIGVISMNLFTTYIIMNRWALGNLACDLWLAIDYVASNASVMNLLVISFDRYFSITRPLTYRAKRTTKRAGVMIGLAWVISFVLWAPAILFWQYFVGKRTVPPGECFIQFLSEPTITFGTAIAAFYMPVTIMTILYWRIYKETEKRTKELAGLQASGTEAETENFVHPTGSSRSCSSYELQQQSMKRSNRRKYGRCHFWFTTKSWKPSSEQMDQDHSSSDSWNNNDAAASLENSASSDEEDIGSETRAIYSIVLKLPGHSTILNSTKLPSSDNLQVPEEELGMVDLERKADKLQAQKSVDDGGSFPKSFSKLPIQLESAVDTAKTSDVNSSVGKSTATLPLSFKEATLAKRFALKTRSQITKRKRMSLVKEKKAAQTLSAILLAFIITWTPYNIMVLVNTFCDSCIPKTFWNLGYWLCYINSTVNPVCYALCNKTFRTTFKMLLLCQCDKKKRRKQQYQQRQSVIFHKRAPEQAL
T1 sequence (P07550 whole entry): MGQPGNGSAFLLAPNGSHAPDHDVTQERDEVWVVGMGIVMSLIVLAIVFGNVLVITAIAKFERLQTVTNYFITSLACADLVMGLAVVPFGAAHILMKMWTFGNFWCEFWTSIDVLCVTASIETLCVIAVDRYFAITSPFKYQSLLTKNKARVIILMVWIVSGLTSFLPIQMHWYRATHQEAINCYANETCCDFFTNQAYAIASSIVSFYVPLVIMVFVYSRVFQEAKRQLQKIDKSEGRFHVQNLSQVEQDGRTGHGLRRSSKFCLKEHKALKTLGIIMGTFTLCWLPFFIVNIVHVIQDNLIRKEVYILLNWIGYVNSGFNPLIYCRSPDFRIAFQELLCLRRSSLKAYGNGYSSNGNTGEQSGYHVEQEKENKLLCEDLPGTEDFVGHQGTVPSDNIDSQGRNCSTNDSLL
Chain of Voltage-gated inwardly rectifying potassium channel KCNH2 (Q12809 whole entry): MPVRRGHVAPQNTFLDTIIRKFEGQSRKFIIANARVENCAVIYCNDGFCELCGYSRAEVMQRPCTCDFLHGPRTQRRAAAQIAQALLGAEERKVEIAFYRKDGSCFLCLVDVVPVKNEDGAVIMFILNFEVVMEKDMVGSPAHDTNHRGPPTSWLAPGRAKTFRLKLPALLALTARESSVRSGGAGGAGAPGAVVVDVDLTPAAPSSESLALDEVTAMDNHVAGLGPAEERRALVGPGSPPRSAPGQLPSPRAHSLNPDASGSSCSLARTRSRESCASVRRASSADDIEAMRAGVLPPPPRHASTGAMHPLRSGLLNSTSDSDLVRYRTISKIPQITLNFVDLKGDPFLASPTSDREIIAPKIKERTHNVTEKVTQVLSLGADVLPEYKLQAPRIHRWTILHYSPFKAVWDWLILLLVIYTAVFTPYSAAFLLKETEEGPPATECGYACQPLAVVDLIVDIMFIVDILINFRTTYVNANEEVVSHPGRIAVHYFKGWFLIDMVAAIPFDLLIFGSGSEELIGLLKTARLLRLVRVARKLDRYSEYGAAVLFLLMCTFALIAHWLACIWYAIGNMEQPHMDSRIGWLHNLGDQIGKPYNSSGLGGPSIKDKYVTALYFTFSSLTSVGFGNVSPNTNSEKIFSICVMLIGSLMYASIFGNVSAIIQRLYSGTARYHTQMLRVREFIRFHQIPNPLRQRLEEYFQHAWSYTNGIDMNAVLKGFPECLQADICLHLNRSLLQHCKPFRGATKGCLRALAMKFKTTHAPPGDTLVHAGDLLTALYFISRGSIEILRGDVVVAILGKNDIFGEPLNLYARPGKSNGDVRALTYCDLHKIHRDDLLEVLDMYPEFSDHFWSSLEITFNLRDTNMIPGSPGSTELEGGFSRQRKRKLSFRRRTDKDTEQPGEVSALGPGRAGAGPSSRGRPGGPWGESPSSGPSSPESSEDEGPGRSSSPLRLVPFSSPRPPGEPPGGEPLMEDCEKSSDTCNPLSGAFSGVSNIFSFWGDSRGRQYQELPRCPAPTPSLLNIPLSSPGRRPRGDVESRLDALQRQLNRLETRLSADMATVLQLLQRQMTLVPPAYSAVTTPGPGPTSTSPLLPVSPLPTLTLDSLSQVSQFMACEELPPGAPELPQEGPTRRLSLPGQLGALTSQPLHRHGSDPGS
Chain of Macrophage metalloelastase (P39900 whole entry): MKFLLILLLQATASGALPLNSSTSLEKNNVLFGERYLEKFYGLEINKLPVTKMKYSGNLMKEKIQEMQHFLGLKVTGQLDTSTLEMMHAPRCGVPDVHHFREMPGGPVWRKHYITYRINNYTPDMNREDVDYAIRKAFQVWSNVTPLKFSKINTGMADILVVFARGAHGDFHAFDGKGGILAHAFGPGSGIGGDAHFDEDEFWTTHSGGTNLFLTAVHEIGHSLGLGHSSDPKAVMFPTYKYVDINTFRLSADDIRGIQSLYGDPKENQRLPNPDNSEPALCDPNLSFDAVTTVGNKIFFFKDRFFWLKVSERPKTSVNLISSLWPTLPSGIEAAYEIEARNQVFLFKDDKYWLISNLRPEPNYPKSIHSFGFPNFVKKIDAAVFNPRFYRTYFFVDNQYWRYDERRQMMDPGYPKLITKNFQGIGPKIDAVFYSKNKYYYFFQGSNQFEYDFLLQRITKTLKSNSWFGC
Chain of 3',5'-cyclic-AMP phosphodiesterase 4B (Q07343 whole entry): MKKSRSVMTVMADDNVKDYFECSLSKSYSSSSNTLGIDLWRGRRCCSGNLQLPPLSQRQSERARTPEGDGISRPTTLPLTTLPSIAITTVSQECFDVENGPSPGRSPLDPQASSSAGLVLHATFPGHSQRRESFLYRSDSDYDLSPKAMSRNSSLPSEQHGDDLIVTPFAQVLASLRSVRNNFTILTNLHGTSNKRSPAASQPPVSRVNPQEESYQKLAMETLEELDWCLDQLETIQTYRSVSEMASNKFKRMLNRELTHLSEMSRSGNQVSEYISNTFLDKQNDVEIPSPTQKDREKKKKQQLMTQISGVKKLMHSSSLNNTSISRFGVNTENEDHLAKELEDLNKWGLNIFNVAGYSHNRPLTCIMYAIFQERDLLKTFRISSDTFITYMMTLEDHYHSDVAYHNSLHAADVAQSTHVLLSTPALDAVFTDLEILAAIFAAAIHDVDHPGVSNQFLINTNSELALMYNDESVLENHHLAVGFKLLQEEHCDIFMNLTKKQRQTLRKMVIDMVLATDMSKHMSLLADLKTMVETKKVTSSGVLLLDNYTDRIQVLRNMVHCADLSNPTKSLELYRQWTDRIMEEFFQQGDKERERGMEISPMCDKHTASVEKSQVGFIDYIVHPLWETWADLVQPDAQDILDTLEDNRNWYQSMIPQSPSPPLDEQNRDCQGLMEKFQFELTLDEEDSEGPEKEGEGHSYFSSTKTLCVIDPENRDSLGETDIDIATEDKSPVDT

SMILES: CC1=C(C#N)[C@@H](c2ccc(C#N)cc2S(C)(=O)=O)N(C)C(=O)N1c1cccc(C(F)(F)F)c1
half-life [2]: 8.5 h | bioavailability [3]: 63%

SMILES: COc1cccc(Nc2c(C(N)=O)cnc3c(C)cc(S(=O)(=O)c4cccc(C(=O)Nc5ccc(C#CCCCNC[C@H](O)c6ccc(O)c7[nH]c(=O)ccc67)cc5)c4)cc23)c1
IC50 [6]: 11 nM | IC50 [7]: 5 nM

SMILES: C[N+]12CCC(CC1)C(OCC(O)(c1ccccc1)C1CCCC1)C2 (stereo unspecified) [BENCYCLOQUIDIUM BROMIDE]
Ki [9]: 6.17 nM

SMILES: O=C(Nc1cc(C(F)(F)F)cc(C(F)(F)F)c1)c1cc(Cl)ccc1O [IMD-0354]
IC50 [10]: 1200 nM

SMILES: COc1cc(NC(=O)OCCN(C)[C@H]2CC[C@H](OC(=O)C(O)(c3cccs3)c3cccs3)CC2)c(Cl)cc1CNC[C@H](O)c1ccc(O)c2[nH]c(=O)ccc12 [LAS190792]
EC50 [5]: 0.251 nM

SMILES: CN(CCCn1nnc2cc(CNC[C@H](O)c3ccc(O)c4[nH]c(=O)ccc34)ccc21)[C@H]1CC[C@H](OC(=O)C(O)(c2cccs2)c2cccs2)CC1 [NAVAFENTEROL]
IC50 [4]: 1.58 nM | EC50 [5]: 0.251 nM

More lines, main results first:

half-life [2]: 3.27 h | bioavailability [3]: 68%
SMILES: CC(C)(O)c1coc(S(=O)(=O)NC(=O)Nc2c3c(cc4c2CCC4)CCC3)c1
IC50 [1]: > 30000 nM

IC50 [4]: 1.58 nM | EC50 [5]: 0.251 nM
SMILES: CC(C)c1ncc(C(=O)N2CCOC3(CCN(Cc4ccc(F)c(CCNC[C@H](O)c5ccc(O)c6[nH]c(=O)sc56)c4)CC3)C2)s1

IC50 [8]: 0.2 nM
SMILES: COc1ccc(Oc2ccc(S(=O)(=O)c3ccccc3CC(=O)NO)cc2)cc1

IC50 [4]: 1.58 nM
SMILES: COc1cc(NC(=O)CCN2CCC(OC(=O)Nc3ccccc3-c3ccccc3)CC2)c(Cl)cc1CNC[C@H](O)c1ccc(O)c2[nH]c(=O)ccc12 [BATEFENTEROL]
